Here are results for eight compounds from EPA's CvTdb concentration-time database.

SMILES strings stand for the structures.

Series [1] concerns Rat. In words: concentration in plasma after dosing. As to conditions: dosed: Fluorotelomer alcohol 8+2, 12 mg/kg, iv, Male, F344.
Series [2] deals with Rat. The series is described as follows: concentration in brain after dosing. The following applies: 3 h; dosed: Fluorotelomer alcohol 8+2; 24 mg/kg; oral; Male; Harlan Sprague Dawley.
The subject of series [3] is Rat. The series is described as follows: concentration in kidney after dosing. As to conditions: 1 h; dosed: Fluorotelomer alcohol 8+2; 24 mg/kg; oral; Male; Harlan Sprague Dawley.
In series [4] the test system is Rat. In words: concentration in kidney after dosing. As to conditions: 6 h; dosed: Fluorotelomer alcohol 8+2; 24 mg/kg; oral; Male; Harlan Sprague Dawley.
Series [5] concerns Rat. The series is described as follows: concentration in plasma after dosing. The following applies: dosed: Fluorotelomer alcohol 8+2, 12 mg/kg, oral, Male, Harlan Sprague Dawley.
Series [6] has as its system Rat. In words: concentration in brain after dosing. As to conditions: 0.5 h; dosed: Fluorotelomer alcohol 8+2; 80 mg/kg; oral; Female; Harlan Sprague Dawley.
The test system of series [7] is Rat. In words: concentration in kidney after dosing. The following applies: 6 h; dosed: Fluorotelomer alcohol 8+2; 80 mg/kg; oral; Female; Harlan Sprague Dawley.
Series [8] has as its system Rat. In words: concentration in plasma after dosing. As to conditions: dosed: Fluorotelomer alcohol 8+2, 12 mg/kg, oral, Male, Harlan Sprague Dawley. The source holds these as a separate data set.
For series [9], the system named is Rat. The series is described as follows: concentration in plasma after dosing. As to conditions: dosed: Wyeth-14643, 1.0 mg/kg, oral, Male, Sprague-Dawley.
In series [10] the test system is Rat. The series is described as follows: concentration in plasma after dosing. The following applies: 4 h; dosed: Wyeth-14643; 5.0 mg/kg; oral; Male; Sprague-Dawley.
Series [11] concerns Rat. In words: concentration in plasma after dosing. The following applies: 1 h; dosed: Wyeth-14643; 2.0 mg/kg; iv; Male; Sprague-Dawley.
Series [12] deals with Rat. The series is described as follows: concentration in plasma after dosing. As to conditions: 0.5 h; dosed: Di-n-butyl phthalate; 50 mg/kg; oral; Male; Sprague-Dawley.
Series [13] deals with Rat. The series is described as follows: concentration in plasma after dosing. As to conditions: 6 h; dosed: Di-n-butyl phthalate; 20 mg/kg; iv; Male; Sprague-Dawley.
In series [14] the test system is Rat. In words: concentration in plasma after dosing. The following applies: dosed: dichloroacetic acid, 40 mg/kg, oral, Female, Harlan Sprague Dawley.
Series [15] deals with Rat. In words: concentration in plasma after dosing. As to conditions: dosed: dichloroacetic acid, 60 mg/kg, iv, Female, Harlan Sprague-Dawley.
Series [16] has as its system Rat. In words: concentration in kidney after dosing. The following applies: 1848 h; dosed: Perfluorodecanoic acid; 10 mg/kg; oral; Male; Harlan Sprague Dawley.
In series [17] the test system is Rat. In words: concentration in liver after dosing. The following applies: 864 h; dosed: Perfluorodecanoic acid; 10 mg/kg; oral; Male; Harlan Sprague Dawley.
Series [18] concerns Rat. The series is described as follows: concentration in plasma after dosing. As to conditions: dosed: Perfluorodecanoic acid, 2 mg/kg, iv, Male, F344.
Series [19] concerns Rat. The series is described as follows: concentration in kidney after dosing. As to conditions: 3360 h; dosed: Perfluorodecanoic acid; 10 mg/kg; oral; Female; Harlan Sprague Dawley.
For series [20], the system named is Rat. The series is described as follows: concentration in liver after dosing. As to conditions: 3360 h; dosed: Perfluorodecanoic acid; 10 mg/kg; oral; Male; Harlan Sprague Dawley.
Series [21] relates to Rat. The series is described as follows: concentration in plasma after dosing. As to conditions: dosed: Perfluorodecanoic acid, 2 mg/kg, iv, Male, F344. This is another data set of the same source.
The subject of series [22] is Rat. In words: concentration in plasma after dosing. As to conditions: 1 h; dosed: Thiodiglycolic Acid; 20 mg/kg; iv; Male; Harlan Sprague Dawley.
For series [23], the system named is Rat. In words: concentration in thymus after dosing. As to conditions: 8 h; dosed: Thiodiglycolic Acid; 20 mg/kg; iv; Female; Harlan Sprague Dawley.
Series [24] has as its system Rat. The series is described as follows: concentration in heart after dosing. The following applies: 40 min; dosed: Thiodiglycolic Acid; 20 mg/kg; iv; Male; Harlan Sprague Dawley.
In series [25] the test system is Rat. The series is described as follows: concentration in plasma after dosing. The following applies: 3 h; dosed: Thiodiglycolic Acid; 20 mg/kg; iv; Female; Harlan Sprague Dawley.
The subject of series [26] is Rat. The series is described as follows: concentration in liver after dosing. As to conditions: 8 h; dosed: Thiodiglycolic Acid; 20 mg/kg; iv; Female; Harlan Sprague Dawley.
In series [27] the test system is Rat. In words: concentration in heart after dosing. As to conditions: 5.333 h; dosed: Thiodiglycolic Acid; 20 mg/kg; iv; Female; Harlan Sprague Dawley.
Series [28] has as its system Rat. The series is described as follows: concentration in plasma after dosing. The following applies: 10 min; dosed: Thiodiglycolic Acid; 20 mg/kg; iv; Male; F344.
In series [29] the test system is Rat. In words: concentration in liver after dosing. As to conditions: 6.667 h; dosed: Thiodiglycolic Acid; 20 mg/kg; iv; Female; Harlan Sprague Dawley.
Series [30] has as its system Rat. The series is described as follows: concentration in thymus after dosing. As to conditions: 40 min; dosed: Thiodiglycolic Acid; 20 mg/kg; iv; Male; Harlan Sprague Dawley.
Series [31] has as its system Rat. In words: concentration in plasma after dosing. As to conditions: 4 h; dosed: Thiodiglycolic Acid; 20 mg/kg; iv; Female; Harlan Sprague Dawley.
Series [32] has as its system Rat. The series is described as follows: concentration in plasma after dosing. As to conditions: 22 h; dosed: Primidone; 130 mg/kg; oral; Male; F344.
For series [33], the system named is Rat. In words: concentration in plasma after dosing. The following applies: 4 h; dosed: Bis 2-Chloroethoxy Methane; 20 mg/kg; iv; Male; F344.
In series [34] the test system is Rat. In words: concentration in heart after dosing. The following applies: 10 min; dosed: Bis 2-Chloroethoxy Methane; 20 mg/kg; iv; Female; F344.
The subject of series [35] is Rat. The series is described as follows: concentration in heart after dosing. As to conditions: 10 min; dosed: Bis 2-Chloroethoxy Methane; 20 mg/kg; iv; Male; F344.
Series [36] concerns Rat. In words: concentration in plasma after dosing. As to conditions: 5 h; dosed: Bis 2-Chloroethoxy Methane; 20 mg/kg; iv; Female; F344.
Series [37] deals with Rat. In words: concentration in liver after dosing. As to conditions: 5 h; dosed: Bis 2-Chloroethoxy Methane; 20 mg/kg; iv; Male; F344.

For the compound `OCCC(F)(F)C(F)(F)C(F)(F)C(F)(F)C(F)(F)C(F)(F)C(F)(F)C(F)(F)F` [Fluorotelomer alcohol 8+2], the concentration in plasma in [1] (5 min) worked out at 3710 ng/mL; in series [1] (3 h) it was 125 ng/mL; in series [5] (1 h), 255 ng/mL; in series [5] (24 h), 3.4 ng/mL; in series [8] (0.5 h) it was 374 ng/mL; in series [8] (9 h), 12.8 ng/mL. The concentration in brain in series [2] stood at 1490 ng/g; in series [6], 4390 ng/g. The values for the concentration in kidney in series [3], in series [4] and in [7] were 1520 ng/g, 366 ng/g and 905 ng/g, respectively.

For `Cc1cccc(Nc2cc(Cl)nc(SCC(=O)O)n2)c1C`, the concentration in plasma in series [9] (0.25 h) amounted to 397 ng/mL; in series [9] (4 h), 308 ng/mL; in [10], 955 ng/mL; in series [11], 2380 ng/mL.

Regarding `CCCCOC(=O)c1ccccc1C(=O)O` [Mono-n-butyl phthalate], the concentration in plasma came out at 21100 ng/mL in [12] and 601 ng/mL in series [13].

As for `O=C(O)C(Cl)Cl` [dichloroacetic acid], the concentration in plasma in series [14] (20 min) turned out to be 7440 ng/mL; in [14] (2 h), 1060 ng/mL; in series [15] (1 h), 16800 ng/mL; in series [15] (2 h), 1340 ng/mL.

Consider `O=C(O)C(F)(F)C(F)(F)C(F)(F)C(F)(F)C(F)(F)C(F)(F)C(F)(F)C(F)(F)C(F)(F)F` [Perfluorodecanoic acid], for which the concentration in kidney was 6050 ng/g in series [16] and 2580 ng/g in series [19]. For the same compound, the concentration in liver worked out at 47900 ng/g in series [17] and 6930 ng/g in [20]. Further, the concentration in plasma in series [18] (12 h) stood at 4320 ng/mL; in [18] (1200 h), 1720 ng/mL; in [21] (24 h), 5550 ng/mL; in [21] (1848 h), 488 ng/mL.

In the case of `O=C(O)CSCC(=O)O` [Thiodiglycolic Acid], the concentration in plasma came out at 2150 ng/mL in series [22], 676 ng/mL in series [25], 25400 ng/mL in series [28] and 360 ng/mL in [31]. For the same compound, the concentration in thymus in series [23] amounted to 544 ng/g; in series [30], 3430 ng/g. Besides, the concentration in heart in [24] was determined as 2320 ng/g; in [27] it was 272 ng/g. For the same compound, the concentration in liver in series [26] turned out to be 45300 ng/g; in series [29], 1600 ng/g.

`CCC1(c2ccccc2)C(=O)NC(=O)NC1=O` [Phenobarbital] gave a concentration in plasma in series [32] of 4990 ng/mL.

On to `ClCCOCOCCCl` [Bis 2-Chloroethoxy Methane], for which the concentration in plasma in [33] came out at 83.3 ng/mL; in [36], 24.8 ng/mL. Moreover, the concentration in heart in series [34] stood at 12100 ng/g; in series [35] it was 13200 ng/g. This compound also gave a concentration in liver in [37] of 42.7 ng/g.
